Test results taken from ChEMBL document CHEMBL1201862, “PubChem BioAssay data set” (2004).
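Where inhibition never reached the appropriate level, the endpoint shown equals the highest concentration tested. Otherwise, values were interpolated linearly from a five-concentration, 48-hour dose response in 96-well plates. The concentration for 50% growth inhibition is given as GI50.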 The source made the active and inactive calls. Cut-off read from the data, not from the text of the source: active = GI50 up to about 1.1 µM and inactive = higher.

Assays:
Test in all cases: inhibition of tumour cell growth, NCI panel, 48 h
T47D = tested on: T47D
SK-MEL-28 = tested on: SK-MEL-28
UACC-62 = tested on: UACC-62
HCT-116 = tested on: HCT-116
UO-31 = tested on: UO-31
HT-29 = tested on: HT-29
CCRF-CEM = tested on: CCRF-CEM
MOLT-4 = tested on: MOLT-4
SK-OV-3 = tested on: SK-OV-3
A549 = tested on: A549
SR = tested on: SR
SN12C = tested on: SN12C
U-251 = tested on: U-251
MDA-MB-231 = tested on: MDA-MB-231
SF-539 = tested on: SF-539
HCC 2998 = tested on: HCC 2998
SNB-75 = tested on: SNB-75
NCI/ADR-RES = tested on: NCI/ADR-RES
COLO 205 = tested on: COLO 205
SK-MEL-2 = tested on: SK-MEL-2
MDA-MB-435 = tested on: MDA-MB-435
K562 = tested on: K562
NCI-H23 = tested on: NCI-H23
M14 = tested on: M14
Hs-578T = tested on: Hs-578T
PC-3 = tested on: PC-3
MCF7 = tested on: MCF7
OVCAR-3 = tested on: OVCAR-3
ACHN = tested on: ACHN
EKVX = tested on: EKVX
HOP-92 = tested on: HOP-92
HCT-15 = tested on: HCT-15
BT-549 = tested on: BT-549
OVCAR-4 = tested on: OVCAR-4
NCI-H460 = tested on: NCI-H460
LOX IMVI = tested on: LOX IMVI
HL-60 = tested on: HL-60
NCI-H226 = tested on: NCI-H226
CAKI-1 = tested on: CAKI-1
SW-620 = tested on: SW-620
HOP-62 = tested on: HOP-62
SK-MEL-5 = tested on: SK-MEL-5
IGROV-1 = tested on: IGROV-1
RXF 393 = tested on: RXF 393
OVCAR-8 = tested on: OVCAR-8
SF-268 = tested on: SF-268
DU-145 = tested on: DU-145
RPMI-8226 = tested on: RPMI-8226
Malme-3M = tested on: Malme-3M
TK-10 = tested on: TK-10
SNB-19 = tested on: SNB-19
SF-295 = tested on: SF-295
A498 = tested on: A498
KM12 = tested on: KM12
UACC-257 = tested on: UACC-257
OVCAR-5 = tested on: OVCAR-5
786-0 = tested on: 786-0
MDA-N = tested on: MDA-N
NCI-H522 = tested on: NCI-H522

In the case of `COC(=O)C1Cc2cc3c(cc2C1)CCC3`, the GI50 (T47D) is reported as > 100 µM (inactive), the GI50 (SK-MEL-28) is reported as > 100 µM (inactive) and the GI50 (UACC-62) is reported as > 100 µM (inactive). For the same compound, the GI50 (HCT-116) was > 100 µM (inactive), the GI50 (UO-31) was > 100 µM (inactive) and the GI50 (HT-29) was 68.9 µM (inactive). For the same compound, the GI50 (CCRF-CEM) was > 100 µM (inactive), the GI50 (MOLT-4) was > 100 µM (inactive) and the GI50 (SK-OV-3) was > 100 µM (inactive). For the same compound, the GI50 (A549) was > 100 µM (inactive), the GI50 (SR) was > 100 µM (inactive) and the GI50 (SN12C) was > 100 µM (inactive). The GI50 (U-251) was > 100 µM (inactive), the GI50 (MDA-MB-231) was > 100 µM (inactive) and the GI50 (SF-539) was > 100 µM (inactive). For the same compound, the GI50 (HCC 2998) was > 100 µM (inactive), the GI50 (SNB-75) was > 100 µM (inactive) and the GI50 (NCI/ADR-RES) was > 100 µM (inactive). For the same compound, the GI50 (COLO 205) was > 100 µM (inactive), the GI50 (SK-MEL-2) was > 100 µM (inactive) and the GI50 (MDA-MB-435) was > 100 µM (inactive). The GI50 (K562) was > 100 µM (inactive), the GI50 (NCI-H23) was > 100 µM (inactive) and the GI50 (M14) was > 100 µM (inactive). For the same compound, the GI50 (Hs-578T) was > 100 µM (inactive), the GI50 (PC-3) was > 100 µM (inactive) and the GI50 (MCF7) was > 100 µM (inactive). The GI50 (OVCAR-3) was > 100 µM (inactive), the GI50 (ACHN) was > 100 µM (inactive) and the GI50 (EKVX) was > 100 µM (inactive). For the same compound, the GI50 (HOP-92) was 34 µM (inactive), the GI50 (HCT-15) was over 100 µM and the GI50 (BT-549) was > 100 µM (inactive). The GI50 (OVCAR-4) was > 100 µM (inactive), the GI50 (NCI-H460) was > 100 µM (inactive) and the GI50 (LOX IMVI) was > 100 µM (inactive). For the same compound, the GI50 (HL-60) was > 100 µM (inactive), the GI50 (NCI-H226) was > 100 µM (inactive) and the GI50 (CAKI-1) was > 100 µM (inactive). The GI50 (SW-620) was > 100 µM (inactive), the GI50 (HOP-62) was > 100 µM (inactive) and the GI50 (SK-MEL-5) was > 100 µM (inactive). The GI50 (IGROV-1) was > 100 µM (inactive), the GI50 (RXF 393) was > 100 µM (inactive) and the GI50 (OVCAR-8) was > 100 µM (inactive). The GI50 (SF-268) was > 100 µM (inactive), the GI50 (DU-145) was > 100 µM (inactive) and the GI50 (RPMI-8226) was > 100 µM (inactive). For the same compound, the GI50 (Malme-3M) was > 100 µM (inactive), the GI50 (TK-10) was 3.65 µM (inactive) and the GI50 (SNB-19) was > 100 µM (inactive). The GI50 (SF-295) was > 100 µM (inactive), the GI50 (A498) was > 100 µM (inactive) and the GI50 (KM12) was > 100 µM (inactive). For the same compound, the GI50 (UACC-257) was > 100 µM (inactive), the GI50 (OVCAR-5) was > 100 µM (inactive) and the GI50 (786-0) was > 100 µM (inactive). The GI50 (MDA-N) was > 100 µM (inactive).
`COc1ccc(N2C(=O)C3c4[nH]c5c(C)cccc5c4C4CCC(C(C)C)CC4C3C2=O)cc1` (stereo not drawn) was tested, and the GI50 (T47D) was 5.96 µM (inactive), the GI50 (SK-MEL-28) was 13 µM (inactive) and the GI50 (UACC-62) was > 10 µM (inactive). The GI50 (HCT-116) was 9.73 µM (inactive), the GI50 (UO-31) was 11.8 µM (inactive) and the GI50 (HT-29) was 3.37 µM (inactive). For the same compound, the GI50 (MOLT-4) was 2.12 µM (inactive), the GI50 (SK-OV-3) was 16.4 µM (inactive) and the GI50 (A549) was 5.41 µM (inactive). The GI50 (SR) was 4.68 µM (inactive), the GI50 (SN12C) was 8.3 µM (inactive) and the GI50 (U-251) was 10 µM (inactive). The GI50 (MDA-MB-231) was 5.96 µM (inactive), the GI50 (HCC 2998) was 10.3 µM (inactive) and the GI50 (SNB-75) was 4.06 µM (inactive). The GI50 (NCI/ADR-RES) was 16.1 µM (inactive), the GI50 (COLO 205) was 12.4 µM (inactive) and the GI50 (SK-MEL-2) was 16.7 µM (inactive). The GI50 (MDA-MB-435) was 7.03 µM (inactive), the GI50 (K562) was 2.01 µM (inactive) and the GI50 (NCI-H23) was 17.3 µM (inactive). The GI50 (M14) was 9.53 µM (inactive), the GI50 (Hs-578T) was 8.09 µM (inactive) and the GI50 (PC-3) was 8.87 µM (inactive). The GI50 (MCF7) was 5.02 µM (inactive), the GI50 (OVCAR-3) was 13.9 µM (inactive) and the GI50 (ACHN) was 13.7 µM (inactive). For the same compound, the GI50 (EKVX) was 16.7 µM (inactive), the GI50 (NCI-H522) was 4.51 µM (inactive) and the GI50 (HOP-92) was 12.1 µM (inactive). For the same compound, the GI50 (HCT-15) was 10 µM, the GI50 (BT-549) was 28.6 µM (inactive) and the GI50 (OVCAR-4) was 14 µM (inactive). The GI50 (NCI-H460) was 7.94 µM (inactive), the GI50 (LOX IMVI) was 3.59 µM (inactive) and the GI50 (NCI-H226) was 13.9 µM (inactive). The GI50 (CAKI-1) was 15 µM (inactive), the GI50 (SW-620) was 11 µM (inactive) and the GI50 (HOP-62) was 10 µM (inactive). For the same compound, the GI50 (SK-MEL-5) was 12 µM (inactive), the GI50 (IGROV-1) was 8.99 µM (inactive) and the GI50 (OVCAR-8) was 12.1 µM (inactive). For the same compound, the GI50 (SF-268) was 6.01 µM (inactive), the GI50 (DU-145) was 12.2 µM (inactive) and the GI50 (RPMI-8226) was 1.88 µM (inactive). The GI50 (Malme-3M) was 13.4 µM (inactive), the GI50 (TK-10) was 24.4 µM (inactive) and the GI50 (SNB-19) was 22.1 µM (inactive). For the same compound, the GI50 (SF-295) was 14.7 µM (inactive), the GI50 (A498) was 14 µM (inactive) and the GI50 (KM12) was 6.75 µM (inactive). The GI50 (UACC-257) was 31 µM (inactive), the GI50 (OVCAR-5) was 14 µM (inactive) and the GI50 (786-0) was 4.38 µM (inactive). For the same compound, the GI50 (MDA-N) was 10.3 µM (inactive).
